Data set [1] deals with CYP450 2C9 (Homo sapiens, UniProt P11712). The data set is described as follows: Human CYP450 screen 2C9. It counts as in vitro ADME. From the text:
For the metabolic stability assay, Human cytochrom P450 (CYP450) screens were used. The cytochrom P450 isoenzymes, which are located in the intestines, liver, lung, kidney and brain, are involved in important drug interactions. Drug metabolism occurs in two phases—Phase I involves oxidation, reduction, and hydrolysis. Phase II involves synthesis and conjugation. The CYP 450 isoenzymes are involved in Phase I oxidative reactions. CYP 450 interactions generally result from one of two processes—Induction, where a substance stimulates the synthesis of the enzyme and metabolic capacity is increased, and inhibition, where competitive binding at an enzyme's binding site(s) occurs. A drug with a high affinity for an enzyme will slow the metabolism of any low affinity drug. CYP 3A3/4 is the most abundant CYP 450 isoenzyme in humans and is responsible for the metabolism of the widest range of drugs/substances. (CYP450) screens used were 1A2, 2C9, 2C19, 2D6 and 3A4.

For data set [2], the system named is neuronal primary cell cultures. Put plainly: Neurotoxicity (5% assay), MTT and Calcein-AM. It counts as cell-based. As to the method: Neurotoxicity (5% assay)—Neural cells were grown in Poly-D-Lysine coated 96-well plates. Eighty μl medium containing 48.000 cells/well were added to each well plate containing 80 μl T.I. in the appropriate concentrations, or nutrition medium (control). Plates were kept at 37° C., 95% humidity and 5% CO2. Neurons, which begin to extend processes after a few hours in culture, were maintained in the same medium without change or addition of media for 8 days, until the end of the experiments. For Neurotoxicity, the MTT-assay was effected using a plate-reader (570 nm) for determining the culture viability, as described in Example 49. The MTT assay is based on the ability of a dehydrogenase enzyme from an active mitochondiria to produce a dark blue formazan product from the pale yellow MTT substrate, by cleaving the MTT tetrazolium rings. Since in the MTT-assay sometimes interference between the substance/drug applied and the generation of formazane crystals can be seen, it is necessary to introduce a second evaluation system. Therefore, the viability of cultures was determined with the Calcein-AM assay as well, as described in Neri et al., [Clin. Diagn. Lab Immunol. 1131-1135 (2001)], using an automated fluorescence plate-reader (485/535 nm). Calcein AM is a widely used green fluorescent cell marker, which is membrane-permeant and thus can be introduced into cells via incubation. […]

In data set [3] the target is T1, β-amyloid1-42 globulomers (Homo sapiens, UniProt P05067).
T1 construct: β-amyloid monomers (0.4 mM) were produced by dissolving the 1-42 peptide in 1,1,1,3,3,3-hexafluoroisopropanol; purchased Bachem (Bubendorf Switzerland)
The data set is described as follows: β-amyloid1-42 globulomer formation (6E10 immunoblot, densitometry). The format is biochemical. The conditions noted are these: 0.13 mM β-amyloid, 1:5 to 1:20 molar ratio, 18 hours at 37° C. From the text:
[…] Solutions were then separated using a 15% Tris-Tricine gel, and transferred to a PVDF membrane, which was screened with a mouse anti β-amyloid monoclonal antibody (6E10; Signet, Dedham, Mass.)
In general terms: In western blotting, separated proteins are transferred to a membrane and probed.

The conditions of data set [4]: mouse, in vivo.
Procedure: Animals were treated following a 4 hour fast, with water ad libitum, and fed 2 hours after administration. Thereafter, animals were sacrificed at different time intervals (5 minutes-8 hours; 3 animals in each group, at every time interval were sacrificed by sodium pentobarbital anesthesia followed by exanguination) and blood (plasma), brain, liver, kidney and pancreas were collected and later analyzed. Plasma and brain tissue samples were analyzed by high-performance liquid chromatography with tandem mass spectrometry (LC-MS/MS).
In case of brain tissue, only AUC0-4 was calculated. All parameters were calculated using the software PK solutions Version 2.0 for Noncompartmental Pharmacokinetics Data analysis (Summit Research Services, Montrose, Colo.).
Data set [5] in a line: Acute toxicity in mice, single i.v. dose. The conditions noted are these: both sexes, mouse, in vivo, iv. As to the method: Acute Toxicity in Mice—Single dose LD50 or maximal tolerated dose (MTD) of D-Trp-Aib was evaluated by i.v. administration in mice (Harlan Biotech Israel). The sequential method applied in a stepwise procedure, using a minimum amount of animals. At a preliminary phase, an initial single target dose of 250 mg/kg was administered to a group of one male and one female. Further higher dose levels of 500, 1,000 and 750 mg/kg were administered in view of presence or absence of lethality incidence and/or severe adverse reactions at each applied level. The time intervals between the test groups dosing sessions were at least 24 hours. Following termination of the preliminary phase and based on its findings, a main phase was conducted where 5 males & 5 females were administered the jointly selected dose of 750 mg/kg, the highest dose level that was suspected to produce no mortality.

For data set [6], the target named is T2, hERG potassium channel (Homo sapiens, UniProt Q12809).
T2 construct: expressed in transfected cells
Put plainly: Functional hERG assay (patch clamp). It counts as cell-based. As to the method:
Functional hERG assay—Compounds were tested in duplicate in a 3-point dose response curve on HEK cells stably expressing the hERG potassium channel (GenBank Accession No. AAD01946). Potassium current was measured using the patch clamp technique on a Molecular Devices Patch Express 7000. hERG channels were activated by 2 second pulses to +20 mV from a holding potential of −80 mV, and K^+ currents were recorded upon repolarization to −50 mV. This voltage-clamp pulse protocol was performed continuously during the experiment (vehicle control, test compound, washout, and positive control additions). An interpulse interval of 15 seconds allowed recovery from any residual inactivation. Compounds were incubated with cells between 3-8 minutes until the current reached a steady state level. After compounds were tested, they were washed out with continuous perfusion for 3 minutes, followed by application of positive control (10 uM Cisparide).

[7] abbreviates: inhaled or intranasal, 20 mg/kg.

Read-outs that look alike come from different tables or passages of the source. Square brackets hold non-standard residues; d marks the D form. Peptide text beside a SMILES is read from it. Aib = CC(C)(N)C(=O)O

T2 sequence (Q12809 whole entry): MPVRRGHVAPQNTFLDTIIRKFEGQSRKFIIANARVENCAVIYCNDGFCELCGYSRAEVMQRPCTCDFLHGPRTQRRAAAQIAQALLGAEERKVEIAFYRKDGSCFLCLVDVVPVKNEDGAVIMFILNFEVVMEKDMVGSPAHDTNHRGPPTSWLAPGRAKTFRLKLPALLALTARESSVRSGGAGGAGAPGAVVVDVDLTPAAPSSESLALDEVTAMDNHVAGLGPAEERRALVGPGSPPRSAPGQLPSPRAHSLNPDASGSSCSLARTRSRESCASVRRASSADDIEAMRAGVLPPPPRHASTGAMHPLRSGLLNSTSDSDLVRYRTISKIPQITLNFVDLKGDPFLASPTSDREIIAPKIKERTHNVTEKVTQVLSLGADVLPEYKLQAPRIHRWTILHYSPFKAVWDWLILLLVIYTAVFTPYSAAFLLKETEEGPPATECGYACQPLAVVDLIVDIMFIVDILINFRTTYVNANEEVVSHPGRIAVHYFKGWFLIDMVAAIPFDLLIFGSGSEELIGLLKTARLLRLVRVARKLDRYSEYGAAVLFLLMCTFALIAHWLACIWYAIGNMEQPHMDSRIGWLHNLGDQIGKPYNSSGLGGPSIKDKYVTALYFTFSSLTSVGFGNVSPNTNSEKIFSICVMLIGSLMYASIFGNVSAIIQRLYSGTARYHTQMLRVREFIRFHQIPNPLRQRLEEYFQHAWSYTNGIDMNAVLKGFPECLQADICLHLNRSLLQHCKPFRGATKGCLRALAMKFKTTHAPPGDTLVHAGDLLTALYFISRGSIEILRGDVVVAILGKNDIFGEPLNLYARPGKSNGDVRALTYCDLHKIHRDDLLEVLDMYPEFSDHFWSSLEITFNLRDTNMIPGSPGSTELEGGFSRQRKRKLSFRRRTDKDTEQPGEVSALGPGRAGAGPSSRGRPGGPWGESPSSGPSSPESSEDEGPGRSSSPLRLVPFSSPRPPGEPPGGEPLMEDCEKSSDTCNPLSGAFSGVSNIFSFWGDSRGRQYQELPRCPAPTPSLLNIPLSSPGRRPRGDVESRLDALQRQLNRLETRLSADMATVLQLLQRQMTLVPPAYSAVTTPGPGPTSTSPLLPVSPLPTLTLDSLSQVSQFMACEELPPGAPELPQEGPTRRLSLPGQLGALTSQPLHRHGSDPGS
T1 sequence (P05067 672-713): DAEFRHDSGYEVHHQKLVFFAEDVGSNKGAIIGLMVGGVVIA
CYP450 2C9, sequence (P11712 whole entry): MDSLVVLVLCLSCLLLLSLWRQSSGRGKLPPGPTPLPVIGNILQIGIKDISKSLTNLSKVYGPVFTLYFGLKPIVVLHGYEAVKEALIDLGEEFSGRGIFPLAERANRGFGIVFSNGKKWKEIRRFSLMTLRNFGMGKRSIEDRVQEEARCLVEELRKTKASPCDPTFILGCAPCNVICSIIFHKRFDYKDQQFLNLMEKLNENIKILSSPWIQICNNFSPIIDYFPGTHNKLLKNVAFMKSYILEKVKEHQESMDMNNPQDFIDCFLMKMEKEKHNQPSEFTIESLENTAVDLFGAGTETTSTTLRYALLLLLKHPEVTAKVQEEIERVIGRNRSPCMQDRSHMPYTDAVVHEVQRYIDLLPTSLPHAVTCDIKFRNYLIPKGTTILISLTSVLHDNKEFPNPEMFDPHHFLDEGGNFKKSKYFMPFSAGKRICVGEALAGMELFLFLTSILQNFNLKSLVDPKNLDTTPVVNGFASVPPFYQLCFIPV

Regarding `CC(C)(NC(=O)[C@H](N)Cc1c[nH]c2ccccc12)C(=O)O` [D-Trp-Aib] (H-[dW]-[Aib]-OH), in data set [1], the “activity in CYP450 screen” value is “None of the results met significance criteria”. The “cytotoxicity towards neuronal primary cell cultures” value in data set [2] (MTT viability assay and Calcein AM assay) is recorded as “noncytotoxic”. Also, the “neuronal viability compared to the untreated control” value in data set [2] (concentration of up to 150 μM) was “did not alter neuronal viability”. Further, the “amount of globulomers (densitometer analysis)” value in data set [3] was “about 45 % of the control”. Moreover, in data set [4], the “detection in brain tissue (transport through the blood-brain barrier)” value is “detected in all the assayed brain tissue samples” and the “exposure of the brain, intranasal compared to oral administration” value is given as “higher exposure of the brain”. Moreover, in data set [4] (setting [7]), the “Cl (area)/kg” value worked out at 19.1947 mL/min/kg and the “Vd (area)/kg” value turned out to be 2.14474 L/kg. For the same compound, in data set [4] (iv, 50 mg/kg), the “AUC (0-t) (obs area)” value is given as 2173.55 and the AUCextra amounted to 0.11%. In addition, the “earliest detection post-dosing (rapidly absorbed)” value in data set [4] (po) is given as 15 min. Moreover, in data set [4] (po, 50 mg/kg), the “AUC (0-t) (obs area)” value is recorded as 453.91, the AUCextra came to 0.24%, the “Cl (area)/kg” value stood at 20.4857 mL/min/kg and the “Vd (area)/kg” value is 1.90581 L/kg. In data set [5], this compound registered an MTD of more than 750 mg/kg. In addition, the MTD in data set [5] (single dose, i.v., read-out: maximal tolerated dose (MTD)) is less than 1000 mg/kg. Also, the “effect on potassium channels” value in data set [6] (HEK cells stably expressing hERG) was “did not show any effect on potassium channels”. The half-inhibitory concentration (IC50) in data set [6] (human, HEK cells stably expressing the hERG potassium channel, read-out: IC50 for potassium current) is more than 50 µM.

Usually IC50 stands for the concentration that gives 50% inhibition.
